According to patent US7745619B2, “Vinca derivatives” (priority 2003, dated 2010):

Experiments:
Format in all cases: cell-based
BT-549 = test: NCI 60-cell line growth inhibition assay: BT-549; conditions: Homo sapiens, Breast, read-out: GI50
HS 578T = test: NCI 60-cell line growth inhibition assay: HS 578T; conditions: Homo sapiens; Breast, HS 578T; read-out: GI50
MCF7 = test: NCI 60-cell line growth inhibition assay: MCF7; conditions: Homo sapiens, Breast, read-out: GI50
MDA-MB-231/ATCC = test: NCI 60-cell line growth inhibition assay: MDA-MB-231/ATCC; conditions: Homo sapiens; Breast, MDA-MB-231/ATCC; read-out: GI50
MDA-MB-435 = test: NCI 60-cell line growth inhibition assay: MDA-MB-435; conditions: Homo sapiens, Breast, read-out: GI50
NCI/ADR-RES = conditions: Homo sapiens, Breast, read-out: GI50
SF-295 = test: NCI 60-cell line growth inhibition assay: SF-295; conditions: Homo sapiens, CNS, read-out: GI50
SF-539 = test: NCI 60-cell line growth inhibition assay: SF-539; conditions: Homo sapiens; CNS, SF-539; read-out: GI50
SNB-19 = test: NCI 60-cell line growth inhibition assay: SNB-19; conditions: Homo sapiens, CNS, read-out: GI50
SNB-75 = test: NCI 60-cell line growth inhibition assay: SNB-75; conditions: Homo sapiens, CNS, read-out: GI50
U251 = test: NCI 60-cell line growth inhibition assay: U251; conditions: Homo sapiens, U-251; CNS, U251; read-out: GI50
COLO 205 = test: NCI 60-cell line growth inhibition assay: COLO 205; conditions: Homo sapiens, Colon, read-out: GI50
HCC-2998 = test: NCI 60-cell line growth inhibition assay: HCC-2998; conditions: Homo sapiens; Colon, HCC-2998; read-out: GI50
HCT-116 = test: NCI 60-cell line growth inhibition assay: HCT-116; conditions: Homo sapiens, Colon, read-out: GI50
HCT-15 = test: NCI 60-cell line growth inhibition assay: HCT-15; conditions: Homo sapiens, Colon, read-out: GI50
HT29 = test: NCI 60-cell line growth inhibition assay: HT29; conditions: Homo sapiens, HT-29; Colon, HT29; read-out: GI50
KM12 = test: NCI 60-cell line growth inhibition assay: KM12; conditions: Homo sapiens, Colon, read-out: GI50
SW-620 = test: NCI 60-cell line growth inhibition assay: SW-620; conditions: Homo sapiens, Colon, read-out: GI50
K-562 = test: NCI 60-cell line growth inhibition assay: K-562; conditions: Homo sapiens, K562; Leukemia, K-562; read-out: GI50
MOLT-4 = test: NCI 60-cell line growth inhibition assay: MOLT-4; conditions: Homo sapiens, Leukemia, read-out: GI50
LOX IMVI = test: NCI 60-cell line growth inhibition assay: LOX IMVI; conditions: Homo sapiens, Melanoma, read-out: GI50
M14 = test: NCI 60-cell line growth inhibition assay: M14; conditions: Homo sapiens, Melanoma, read-out: GI50
MALME-3M = test: NCI 60-cell line growth inhibition assay: MALME-3M; conditions: Homo sapiens; Melanoma, MALME-3M; read-out: GI50
SK-MEL-2 = test: NCI 60-cell line growth inhibition assay: SK-MEL-2; conditions: Homo sapiens, Melanoma, read-out: GI50
SK-MEL-5 = test: NCI 60-cell line growth inhibition assay: SK-MEL-5; conditions: Homo sapiens, Melanoma, read-out: GI50
UACC-257 = test: NCI 60-cell line growth inhibition assay: UACC-257; conditions: Homo sapiens, Melanoma, read-out: GI50
UACC-62 = test: NCI 60-cell line growth inhibition assay: UACC-62; conditions: Homo sapiens, Melanoma, read-out: GI50
A549/ATCC = test: NCI 60-cell line growth inhibition assay: A549/ATCC; conditions: Homo sapiens; Non-Small Cell Lung, A549/ATCC; read-out: GI50
EKVX = test: NCI 60-cell line growth inhibition assay: EKVX; conditions: Homo sapiens, Non-Small Cell Lung, read-out: GI50
HOP-62 = test: NCI 60-cell line growth inhibition assay: HOP-62; conditions: Homo sapiens, Non-Small Cell Lung, read-out: GI50
HOP-92 = test: NCI 60-cell line growth inhibition assay: HOP-92; conditions: Homo sapiens, Non-Small Cell Lung, read-out: GI50
NCI-H23 = conditions: Homo sapiens, Non-Small Cell Lung, read-out: GI50
NCI-H460 = conditions: Homo sapiens, Non-Small Cell Lung, read-out: GI50
NCI-H522 = conditions: Homo sapiens, Non-Small Cell Lung, read-out: GI50
OVCAR-3 = test: NCI 60-cell line growth inhibition assay: OVCAR-3; conditions: Homo sapiens, Ovarian, read-out: GI50
OVCAR-4 = test: NCI 60-cell line growth inhibition assay: OVCAR-4; conditions: Homo sapiens, Ovarian, read-out: GI50
OVCAR-5 = test: NCI 60-cell line growth inhibition assay: OVCAR-5; conditions: Homo sapiens, Ovarian, read-out: GI50
OVCAR-8 = test: NCI 60-cell line growth inhibition assay: OVCAR-8; conditions: Homo sapiens, Ovarian, read-out: GI50
SK-OV-3 = test: NCI 60-cell line growth inhibition assay: SK-OV-3; conditions: Homo sapiens, Ovarian, read-out: GI50
DU-145 = test: NCI 60-cell line growth inhibition assay: DU-145; conditions: Homo sapiens, Prostate, read-out: GI50
PC-3 = test: NCI 60-cell line growth inhibition assay: PC-3; conditions: Homo sapiens, Prostate, read-out: GI50
786-0 = test: NCI 60-cell line growth inhibition assay: 786-0; conditions: Homo sapiens, Renal, read-out: GI50
A498 = test: NCI 60-cell line growth inhibition assay: A498; conditions: Homo sapiens, Renal
From the text: The following data in Table 4 summarize the growth inhibition properties of several compounds of the present invention against 60-human transformed cell lines.

ACHN = test: NCI 60-cell line growth inhibition assay: ACHN; conditions: Homo sapiens, Renal, read-out: GI50
CAKI-1 = test: NCI 60-cell line growth inhibition assay: CAKI-1; conditions: Homo sapiens, Renal, read-out: GI50
RXF 393 = test: NCI 60-cell line growth inhibition assay: RXF 393; conditions: Homo sapiens, Renal, read-out: GI50
SN12C = test: NCI 60-cell line growth inhibition assay: SN12C; conditions: Homo sapiens, Renal, read-out: GI50
TK-10 = test: NCI 60-cell line growth inhibition assay: TK-10; conditions: Homo sapiens, Renal, read-out: GI50
UO-31 = test: NCI 60-cell line growth inhibition assay: UO-31; conditions: Homo sapiens, Renal, read-out: GI50

C#Cc1ccc2[nH]c3c(c2c1)CCN1C[C@H](C[C@@](O)(CC)C1)C[C@]3(C(=O)OC)c1cc2c(cc1OC)N(C)[C@H]1[C@@](O)(C(=O)OC)[C@H](OC(C)=O)[C@]3(CC)C=CCN4CC[C@]21[C@@H]43 [Example 17, 12′-ethynylvinblastine]
GI50 (BT-549): < 10 nM
GI50 (HS 578T): < 10 nM
GI50 (MCF7): < 10 nM
GI50 (MDA-MB-231/ATCC): < 10 nM
GI50 (MDA-MB-435): < 10 nM
GI50 (NCI/ADR-RES): 2090 nM
GI50 (SF-295): < 10 nM
GI50 (SF-539): < 10 nM
GI50 (SNB-19): < 10 nM
GI50 (SNB-75): < 10 nM
GI50 (U251): < 10 nM
GI50 (COLO 205): < 10 nM
GI50 (HCC-2998): < 10 nM
GI50 (HCT-116): < 10 nM
GI50 (HCT-15): 44 nM
GI50 (HT29): < 10 nM
GI50 (KM12): < 10 nM
GI50 (SW-620): < 10 nM
GI50 (K-562): 53.1 nM
GI50 (MOLT-4): < 10 nM
GI50 (LOX IMVI): < 10 nM
GI50 (M14): < 10 nM
GI50 (MALME-3M): < 10 nM
GI50 (SK-MEL-2): < 10 nM
GI50 (SK-MEL-5): < 10 nM
GI50 (UACC-257): 22.4 µM
GI50 (UACC-62): < 10 nM
GI50 (A549/ATCC): 16.9 nM
GI50 (EKVX): < 10 nM
GI50 (HOP-62): < 10 nM
GI50 (HOP-92): 160 nM
GI50 (NCI-H23): < 10 nM
GI50 (NCI-H460): < 10 nM
GI50 (NCI-H522): < 10 nM
GI50 (OVCAR-3): < 10 nM
GI50 (OVCAR-4): 15.3 nM
GI50 (OVCAR-5): < 10 nM
GI50 (OVCAR-8): < 10 nM
GI50 (SK-OV-3): < 10 nM
GI50 (DU-145): < 10 nM
GI50 (PC-3): < 10 nM
GI50 (786-0): < 10 nM
GI50 (A498): < 10 nM
GI50 (ACHN): < 10 nM
GI50 (CAKI-1): 73.4 nM
GI50 (RXF 393): < 10 nM
GI50 (SN12C): < 10 nM
GI50 (TK-10): < 10 nM
GI50 (UO-31): 98.6 nM
